In the NIST ThermoML archive (doi:10.1016/j.jct.2009.05.011):
± gives the expanded uncertainty stated by the source.

Test: mn = molality of the nth substance listed, in mol/kg
Conditions: 101 kPa, Liquid, Vibrating tube method

CC[C@H](C)[C@H](NC(=O)CN)C(=O)NCC(=O)O [glycyl-L-isoleucylglycine] + O
Conditions | mass density [kg/m3]
288.15 K, m1 = 0.0284 | 1001.07 ± 0.086
288.15 K, m1 = 0.03948 | 1001.83 ± 0.086
288.15 K, m1 = 0.04918 | 1002.5 ± 0.087
288.15 K, m1 = 0.05715 | 1003.04 ± 0.086
288.15 K, m1 = 0.06935 | 1003.87 ± 0.086
288.15 K, m1 = 0.07955 | 1004.56 ± 0.086
288.15 K, m1 = 0.08916 | 1005.21 ± 0.086
288.15 K, m1 = 0.1012 | 1006.02 ± 0.087
303.15 K, m1 = 0.01893 | 996.925 ± 0.086
303.15 K, m1 = 0.0328 | 997.846 ± 0.09
303.15 K, m1 = 0.04344 | 998.561 ± 0.092
303.15 K, m1 = 0.04827 | 998.872 ± 0.085
303.15 K, m1 = 0.05907 | 999.58 ± 0.084
303.15 K, m1 = 0.06849 | 1000.21 ± 0.097
303.15 K, m1 = 0.07945 | 1000.91 ± 0.086
303.15 K, m1 = 0.09989 | 1002.23 ± 0.083
313.15 K, m1 = 0.02969 | 994.182 ± 0.086
313.15 K, m1 = 0.04028 | 994.873 ± 0.085
313.15 K, m1 = 0.05061 | 995.543 ± 0.085
313.15 K, m1 = 0.05971 | 996.132 ± 0.084
313.15 K, m1 = 0.07966 | 997.418 ± 0.084

CC(C)C[C@H](NC(=O)CN)C(=O)NCC(=O)O [glycyl-L-leucylglycine] + O
Conditions | mass density [kg/m3]
288.15 K, m1 = 0.03052 | 1001.2 ± 0.085
288.15 K, m1 = 0.04107 | 1001.91 ± 0.086
288.15 K, m1 = 0.05063 | 1002.57 ± 0.085
288.15 K, m1 = 0.06015 | 1003.2 ± 0.086
288.15 K, m1 = 0.07034 | 1003.9 ± 0.086
288.15 K, m1 = 0.08092 | 1004.6 ± 0.085
288.15 K, m1 = 0.09106 | 1005.27 ± 0.085
288.15 K, m1 = 0.1008 | 1005.92 ± 0.086
298.15 K, m1 = 0.01963 | 998.372 ± 0.085
298.15 K, m1 = 0.03198 | 999.201 ± 0.083
298.15 K, m1 = 0.04637 | 1000.16 ± 0.082
298.15 K, m1 = 0.0606 | 1001.11 ± 0.085
298.15 K, m1 = 0.07265 | 1001.9 ± 0.087
298.15 K, m1 = 0.08576 | 1002.77 ± 0.084
298.15 K, m1 = 0.09698 | 1003.5 ± 0.073
303.15 K, m1 = 0.01876 | 996.907 ± 0.09
303.15 K, m1 = 0.03847 | 998.204 ± 0.084
303.15 K, m1 = 0.04881 | 998.896 ± 0.085
303.15 K, m1 = 0.05715 | 999.436 ± 0.083
303.15 K, m1 = 0.06905 | 1000.22 ± 0.081
303.15 K, m1 = 0.07699 | 1000.73 ± 0.087
303.15 K, m1 = 0.08729 | 1001.4 ± 0.085
303.15 K, m1 = 0.09709 | 1002.03 ± 0.073
313.15 K, m1 = 0.01926 | 993.479 ± 0.086
313.15 K, m1 = 0.02873 | 994.105 ± 0.085
313.15 K, m1 = 0.04912 | 995.406 ± 0.085
313.15 K, m1 = 0.06755 | 996.608 ± 0.084
313.15 K, m1 = 0.07763 | 997.232 ± 0.083
313.15 K, m1 = 0.0869 | 997.826 ± 0.083
313.15 K, m1 = 0.1005 | 998.668 ± 0.082

CSCC[C@H](NC(=O)CN)C(=O)NCC(=O)O [glycyl-L-methionylglycine] + O
Conditions | mass density [kg/m3]
288.15 K, m1 = 0.02065 | 1000.96 ± 0.1
288.15 K, m1 = 0.02481 | 1001.33 ± 0.1
288.15 K, m1 = 0.03005 | 1001.79 ± 0.1
288.15 K, m1 = 0.04038 | 1002.71 ± 0.1
288.15 K, m1 = 0.05024 | 1003.58 ± 0.1
288.15 K, m1 = 0.06017 | 1004.46 ± 0.1
288.15 K, m1 = 0.07183 | 1005.48 ± 0.1
288.15 K, m1 = 0.07978 | 1006.18 ± 0.1
288.15 K, m1 = 0.0913 | 1007.18 ± 0.11
303.15 K, m1 = 0.03024 | 998.275 ± 0.14
303.15 K, m1 = 0.03988 | 999.096 ± 0.11
303.15 K, m1 = 0.05998 | 1000.82 ± 0.096
303.15 K, m1 = 0.06988 | 1001.65 ± 0.097
303.15 K, m1 = 0.07911 | 1002.43 ± 0.099
303.15 K, m1 = 0.08988 | 1003.32 ± 0.11
303.15 K, m1 = 0.1012 | 1004.27 ± 0.1
313.15 K, m1 = 0.0199 | 993.923 ± 0.1
313.15 K, m1 = 0.03002 | 994.787 ± 0.1
313.15 K, m1 = 0.04003 | 995.629 ± 0.1
313.15 K, m1 = 0.05041 | 996.504 ± 0.1
313.15 K, m1 = 0.061 | 997.393 ± 0.1
313.15 K, m1 = 0.07039 | 998.173 ± 0.1
313.15 K, m1 = 0.08051 | 999.015 ± 0.1

NCC(=O)N[C@@H](Cc1ccccc1)C(=O)NCC(=O)O [glycyl-L-phenylalanylglycine] + O
Conditions | mass density [kg/m3]
288.15 K, m1 = 0.005986 | 999.628 ± 0.1
288.15 K, m1 = 0.008946 | 999.888 ± 0.1
288.15 K, m1 = 0.01159 | 1000.12 ± 0.1
288.15 K, m1 = 0.01398 | 1000.33 ± 0.1
288.15 K, m1 = 0.01783 | 1000.66 ± 0.1
288.15 K, m1 = 0.02035 | 1000.89 ± 0.1
288.15 K, m1 = 0.02318 | 1001.13 ± 0.1
288.15 K, m1 = 0.0251 | 1001.3 ± 0.1
303.15 K, m1 = 0.00896 | 996.415 ± 0.27
303.15 K, m1 = 0.01148 | 996.632 ± 0.088
303.15 K, m1 = 0.01353 | 996.804 ± 0.084
303.15 K, m1 = 0.01556 | 996.971 ± 0.15
303.15 K, m1 = 0.01814 | 997.19 ± 0.11
303.15 K, m1 = 0.01958 | 997.317 ± 0.082
303.15 K, m1 = 0.02246 | 997.559 ± 0.056
303.15 K, m1 = 0.02447 | 997.735 ± 0.15
313.15 K, m1 = 0.004093 | 992.563 ± 0.1
313.15 K, m1 = 0.00896 | 992.969 ± 0.1
313.15 K, m1 = 0.01149 | 993.182 ± 0.1
313.15 K, m1 = 0.01353 | 993.351 ± 0.099
313.15 K, m1 = 0.01556 | 993.516 ± 0.099
313.15 K, m1 = 0.01761 | 993.683 ± 0.1
313.15 K, m1 = 0.02033 | 993.916 ± 0.1
313.15 K, m1 = 0.02333 | 994.159 ± 0.1
313.15 K, m1 = 0.02522 | 994.324 ± 0.1

NCC(=O)N1CCC[C@H]1C(=O)NCC(=O)O [glycyl-L-prolylglycine] + O
Conditions | mass density [kg/m3]
288.15 K, m1 = 0.02017 | 1000.83 ± 0.1
288.15 K, m1 = 0.0252 | 1001.26 ± 0.1
288.15 K, m1 = 0.02989 | 1001.66 ± 0.1
288.15 K, m1 = 0.0347 | 1002.07 ± 0.1
288.15 K, m1 = 0.04017 | 1002.54 ± 0.1
288.15 K, m1 = 0.04486 | 1002.93 ± 0.1
288.15 K, m1 = 0.04775 | 1003.19 ± 0.1
288.15 K, m1 = 0.05375 | 1003.69 ± 0.1
303.15 K, m1 = 0.02292 | 997.573 ± 0.099
303.15 K, m1 = 0.02697 | 997.912 ± 0.11
303.15 K, m1 = 0.03212 | 998.333 ± 0.11
303.15 K, m1 = 0.03677 | 998.728 ± 0.11
303.15 K, m1 = 0.04242 | 999.195 ± 0.1
303.15 K, m1 = 0.04731 | 999.598 ± 0.096
303.15 K, m1 = 0.05219 | 1000.01 ± 0.053
313.15 K, m1 = 0.02757 | 994.502 ± 0.098
313.15 K, m1 = 0.03212 | 994.873 ± 0.099
313.15 K, m1 = 0.03715 | 995.286 ± 0.099
313.15 K, m1 = 0.04242 | 995.724 ± 0.098
313.15 K, m1 = 0.04731 | 996.116 ± 0.098
313.15 K, m1 = 0.05169 | 996.482 ± 0.1

CC(C)[C@H](NC(=O)CN)C(=O)NCC(=O)O [glycyl-L-valylglycine] + O
Conditions | mass density [kg/m3]
288.15 K, m1 = 0.01862 | 1000.45 ± 0.089
288.15 K, m1 = 0.02808 | 1001.13 ± 0.089
288.15 K, m1 = 0.03769 | 1001.83 ± 0.089
288.15 K, m1 = 0.04662 | 1002.47 ± 0.089
288.15 K, m1 = 0.05168 | 1002.82 ± 0.088
288.15 K, m1 = 0.05581 | 1003.11 ± 0.089
288.15 K, m1 = 0.06152 | 1003.53 ± 0.089
288.15 K, m1 = 0.07369 | 1004.39 ± 0.089
288.15 K, m1 = 0.08031 | 1004.86 ± 0.089
303.15 K, m1 = 0.02786 | 997.6 ± 0.13
303.15 K, m1 = 0.0373 | 998.253 ± 0.086
303.15 K, m1 = 0.04619 | 998.869 ± 0.1
303.15 K, m1 = 0.05567 | 999.521 ± 0.086
303.15 K, m1 = 0.06481 | 1000.14 ± 0.091
303.15 K, m1 = 0.07464 | 1000.82 ± 0.087
303.15 K, m1 = 0.08365 | 1001.43 ± 0.093
303.15 K, m1 = 0.09397 | 1002.14 ± 0.087
313.15 K, m1 = 0.02103 | 993.668 ± 0.088
313.15 K, m1 = 0.02584 | 993.998 ± 0.088
313.15 K, m1 = 0.03709 | 994.764 ± 0.087
313.15 K, m1 = 0.05558 | 996.017 ± 0.087
313.15 K, m1 = 0.06483 | 996.652 ± 0.087
313.15 K, m1 = 0.0741 | 997.273 ± 0.087
313.15 K, m1 = 0.08323 | 997.9 ± 0.086
313.15 K, m1 = 0.09182 | 998.467 ± 0.085
